In US6767552B2, “Adhesive treatment for oral fungal infection” (Closure Medical Corporation, priority 2001, dated 2004):

Assay: Observation of the haloprogin / 2-octyl cyanoacrylate monomer composition in a sealed glass vial
Assay type: physicochemical
Conditions: 30 mg haloprogin in 2 mL 2-octyl cyanoacrylate monomer
Experimental: A 2-octyl cyanoacrylate monomer composition is prepared by adding 30 mg of haloprogin, an anti-fungal agent, to 2 mL of 2-octyl cyanoacrylate monomer. The mixture is sealed in a glass vial and stirred. The characteristics of the composition are observed at about one minute after preparation and later at least twenty-four hours after preparation.

premature polymerization of the monomer (at least twenty-four hours after preparation): does not cause premature polymerization | solubility of haloprogin in the monomer (observed about one minute and at least twenty-four hours after preparation): soluble
SMILES: Clc1cc(Cl)c(OCC#CI)cc1Cl [haloprogin]
